Reference: patent US7888042B2, “Methods for identifying insulin mimetics” (Ohio University, priority 2005, dated 2011)

Tested on: GLUT4
Assay: GLUT4 translocation, confocal microscopy
Format: cell-based
Settings: adipocytes, 37° C., 15 min
Method: (A) Glucose transport was measured by determining [^3H]-2-deoxyglucose uptake stimulated by either insulin or α-PGG in 3T3-L1 cells in the presence or absence of HNMPA-(AM)3, an inhibitor of IR tyrosine kinase activity (24); wortmannin, an inhibitor of PI 3-kinase (25), or cytochalasin B, an inhibitor of GLUT4 (26), (n=4, mean±SD). (B) Cells were induced by 20 or 40 μM α-PGG or 100 nM insulin for 15 min. Cell lysates were separated by PAGE and analyzed for phosphorylation of IR (in CHO-IR cells) or Akt (in adipocytes) using antibodies specific to the target proteins. (C) Cells were treated with α-PGG and insulin in a fashion similar to (B) and assayed for their respective PI-3 kinase activity with a radioactive TLC method (27). (D) In similar experiments, intact cells were analyzed by confocal microscopy for translocation of GLUT4 using anti-GLUT4 antibodies.
Protein phosphorylation/activation and GLUT4 translocation. To investigate signal transduction induced by α-PGG, proteins from 3T3-L1 adipocytes or CHO-IR cells (23), which were treated with α-PGG or insulin for 15 min, were isolated, separated by PAGE, blotted on nylon membranes, and analyzed by Western blotting with antibodies against either IR or Akt. […]

O=C(OC[C@H]1O[C@H](OC(=O)c2cc(O)c(O)c(O)c2)[C@H](OC(=O)c2cc(O)c(O)c(O)c2)[C@@H](OC(=O)c2cc(O)c(O)c(O)c2)[C@@H]1OC(=O)c1cc(O)c(O)c(O)c1)c1cc(O)c(O)c(O)c1 [α-PGG, alpha 1,2,3,4,6-penta-O-galloyl-D-Glucopyranose]
GLUT4 translocation: translocated to the plasma membrane
